Earlier results on one compound are cited in patent US20050009922A1, “Stable aqueous antimicrobial suspension” (priority 2001, published 2005).

For this data set the following is noted: in water, 25° C., FIG. 1.

On to `N#CC(Br)(Br)C(N)=O` [DBNPA, 2,2 dibromo 3-nitrilopropionamide], for which the “pH of lowest rate of hydrolysis” value is listed as under 4 pH.
